Results reported in EP4722203A1, “3,4-DIHYDROPHTHALAZIN-1(2H)-ONE DERIVATIVE, AND PREPARATION METHOD THEREFOR AND USE THEREOF” (Academy of Military Medical Sciences, priority 2023, dated 2024).

Columns and labels:
[1] = test system: human multiple myeloma NCI-H929 xenograft tumors; test: In vivo activity in combination with dexamethasone against NCI-H929 transplanted tumor; set-up: species or system NOD/SCID mice; conditions: each drug 3 mg/kg, QD; for Tumor inhibition rate TGI (%) / Average volume (mm^3) (Day 10) / Initial volume (mm^3): oral gavage, alone or combined; for Tumor inhibition rate TGI (%): 10 consecutive days; for Initial volume (mm^3): baseline
Procedure: In this example, human multiple myeloma NCI-H929 cell line was selected as the cell model to determine the inhibitory effects of compound and dexamethasone alone, as well as combination thereof on the growth of NOD/SCID mouse transplanted tumors of NCI-H929 tumor cells. The evaluation methods and results are described below.
(§1) Human multiple myeloma NCI-H929 cells were routinely cultured in RPMI1640 containing 10% fetal bovine serum at 37°C in a 5% CO2 incubator. After three passages in vitro, when the cells reached over 80% confluence and the required confluence rate, the cells were digested and harvested. After washing with PBS, the cells were counted and the cell concentration was adjusted to approximately 5 × 10^7 cells/mL. The cells were then placed in 4 mL centrifuge tubes on ice for later use.
(§2) Female NOD/SCID mice aged 4-5 weeks were selected and subcutaneously inoculated with NCI-H929 cells ectopically. The mice were held in a lateral position, the forelimb axilla was disinfected with 75% alcohol, and 100 µL of the cell suspension was injected subcutaneously into the axilla using a 1 mL syringe ([…]/100 µL).
After the tumors grew to 90-150 mm^3, the animals were randomly divided into groups, 8 mice in each group, and administered according to different administration methods as follows: • Model control group: Administered with the same volume of Vehicle (DMSO: 0.5% sodium carboxymethyl cellulose: distilled water = 1:1:8) daily by gavage; • Test group 1: administered with dexamethasone (Dex) solution at 3 mg/kg (mouse body weight) daily by gavage; • Test group 2: administered with I-4 solution at 3 mg/kg (mouse body weight) daily by gavage; • Test group 3: administered with I-8 solution at 3 mg/kg (mouse body weight) daily by gavage; • Test group 4: administered with dexamethasone at 3 mg/kg (mouse body weight) and 1-4 solution at 3 mg/kg (mouse body weight) daily by gavage; • Test group 5: administered with dexamethasone at 3 mg/kg (mouse body weight) and I-8 solution at 3 mg/kg (mouse body weight) daily by gavage;
(§3) The route of administration was oral gavage, and the administration frequency was once daily, for 10 consecutive days. The first day of administration was defined as Day 1 of the experiment. Tumor volume changes in mice were measured and recorded every two days. Tumor volume was measured using a vernier caliper, in which the major axis (a) and minor axis (b) of the tumor were measured, and the tumor volume was calculated as tumor volume V (mm^3) = a x b^2/2. After the experiment, the mice were dissected and the tumor weight was measured. The data were entered and statistically analyzed using GraphPad Prism 6 software. The data are expressed as mean ± SEM (Standard Error of Mean), and one-way ANOVA was used. P ≤ 0.05 was considered statistically significant.

RPMI-8226 cells = test: Antiproliferative activity, CCK-8 assay; format: cell-based; conditions: Homo sapiens, 144 hours incubation, CCK-8, absorbance at 450 nm
[2] = test system: human multiple myeloma NCI-H929 xenograft tumors; test: In vivo activity of combination therapy with bortezomib or tazemetostat against NCI-H929 transplanted tumor; set-up: species or system NOD/SCID mice; conditions: I-8 3 mg/kg QD
Procedure: In this example, the human multiple myeloma NCI-H929 cell line was selected as the cell model to determine the inhibitory effects of compounds, bortezomib (Bort), and tazemetostat (Taze), as single drugs and in combination, on the growth of NOD/SCID mouse transplanted tumors of NCI-H929 tumor cells. The evaluation methods and results are described below.
as §1, §2
After the tumors grew to 90-150 mm^3, the animals were randomly divided into groups, 8 mice in each group, and administered according to different administration methods as follows: • Model control group: Administered with the same volume of Vehicle (DMSO: 0.5% sodium carboxymethyl cellulose: distilled water = 1:1:8) daily by gavage; • Test group 1: administered with I-8 solution at 3 mg/kg (mouse body weight) daily by gavage; • Test group 2: administered with bortezomib (Bort) solution at 1 mg/kg (mouse body weight) twice weekly by gavage; • Test group 3: administered with tazemetostat solution at 100 mg/kg (mouse body weight) daily by gavage; • Test group 4: administered with I-8 at 3 mg/kg (mouse body weight) daily by gavage and bortezomib (Bort) solution at 1 mg/kg (mouse body weight) twice weekly by gavage; • Test group 5: administered with I-8 at 3 mg/kg (mouse body weight) daily by gavage and tazemetostat (Taze) solution at 100 mg/kg (mouse body weight) daily by gavage;
as §3

| Compound | growth of NCI-H929 transplanted tumors (in words) [1] | Tumor inhibition rate TGI (%) [1] [%] | Average volume (mm^3) (Day 10) [1] | Initial volume (mm^3) [1] [mm^3] | IC50 (RPMI-8226 cells) [µM] | Average volume (mm^3) (Day 10) ([2]; Day 10, Bort 1 mg/kg BIW, Taze 100 mg/kg QD, combinations given as + Bort 3 mg/kg BIW / + Taze 3 mg/kg QD) | Tumor inhibition rate TGI (%) ([2]; Bort 1 mg/kg BIW, Taze 100 mg/kg QD, combinations given as + Bort 3 mg/kg BIW / + Taze 3 mg/kg QD) | growth of NCI-H929 transplanted tumors (in words) ([2]; bortezomib 1 mg/kg BIW, tazemetostat 100 mg/kg QD, alone or combined) | Initial volume (mm^3) ([2]; baseline, Bort 1 mg/kg BIW, Taze 100 mg/kg QD, combinations given as + Bort 3 mg/kg BIW / + Taze 3 mg/kg QD) |
| --- | --- | --- | --- | --- | --- | --- | --- | --- | --- |
| CN1Cc2c(N)cccc2C(=O)N1C1CCC(=O)NC1=O (centres unmarked) [I-4, 3-(5-amino-3-methyl-1-oxo-3,4-dihydrophthalazin-2(1H)-yl)piperidin-2,6-dione] | effectively inhibit the growth | 68.03 | 689.9 | 183.9 |  |  |  |  |  |
| CN1Cc2c(NCc3ccc(CN4CCN(c5ccc(C#N)c(F)c5)CC4)cc3)cccc2C(=O)N1C1CCC(=O)NC1=O (centres unmarked) [I-8] | effectively inhibit the growth | 82.64 | 458.1 | 183.3 | 0.308 | 498.6 | 77.24 | effectively inhibits the growth | 120.7 |
| Nc1cccc2c1C(=O)N(C1CCC(=O)NC1=O)C2=O (centres unmarked) [Pomalidomide, reference compound] |  |  |  |  | 0.729 |  |  |  |  |
